The record followed here is patent publication US20150004134A1, “TREATMENT OF CANCER WITH HETEROCYCLIC INHIBITORS OF GLUTAMINASE” (Calithera Biosciences, Inc., priority 2012, published 2015).

In one assay the target is T1, recombinant form of Glutaminase 1 (GAC) (Homo sapiens, UniProt O94925).
T1 sequence (O94925 137-598 isoform O94925-3 limits assumed): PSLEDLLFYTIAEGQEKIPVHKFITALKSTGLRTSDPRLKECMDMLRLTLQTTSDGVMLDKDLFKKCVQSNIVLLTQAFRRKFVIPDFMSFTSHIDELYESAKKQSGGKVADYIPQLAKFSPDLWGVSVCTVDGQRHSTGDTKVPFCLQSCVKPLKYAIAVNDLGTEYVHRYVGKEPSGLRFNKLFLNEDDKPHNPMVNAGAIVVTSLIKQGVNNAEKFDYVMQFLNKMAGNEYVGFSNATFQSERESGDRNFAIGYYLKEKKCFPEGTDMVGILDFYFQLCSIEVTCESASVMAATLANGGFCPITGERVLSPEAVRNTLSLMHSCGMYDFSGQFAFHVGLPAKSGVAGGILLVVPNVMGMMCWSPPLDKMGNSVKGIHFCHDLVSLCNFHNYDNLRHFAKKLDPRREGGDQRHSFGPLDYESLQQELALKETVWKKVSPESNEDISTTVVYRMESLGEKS
Put plainly: Recombinant Enzyme Assay - Time Dependence (60 min preincubation). Type of assay: biochemical.
Details: not given
As to the method: The enzyme/compound mix was sealed with sealing foil (USA Scientific) and allowed to incubate, with mild agitation, for 60 minutes at 20° C. Enzymatic reaction was started with the addition of 50 μL of substrate solution (50 mM Tris-HCl pH 8.0, 0.2 mM EDTA, 150 mM K2HPO4, 0.1 mg/ml BSA, 1 mM DTT, 20 mM L-glutamine, 2 mM NAD^+, and 10 ppm antifoam) and read in a Molecular Devices M5 plate reader at 20° C. The plate reader was configured to read absorbance (=340 nm) in kinetic mode for 15 minutes. Data was recorded as milli-absorbance units per minute and slopes were compared to a control compound and a DMSO-only control on the same plate. Compounds with slopes less than the DMSO control were considered inhibitors and plate variability was assessed using the control compound.
Regarding `O=C(Cc1cccc(Br)c1)Nc1nnc(CCCCc2nnc(NC(=O)Cc3cccc(Br)c3)s2)s1` [Compound 284], the IC50 worked out at 50 nM.

Staying with this assay, now noted: read-out: GAC Delta N2 IC50 60 min preinc.
`O=C(Cc1ccccc1)Nc1ccc(CCCCc2nnc(NC(=O)Cc3cccc(Cn4cccn4)c3)s2)nn1` [Compound 395]: the IC50 turned out to be 4 nM.
As for `COc1cccc(CC(=O)Nc2nnc(CCCCc3ccc(NC(=O)Cc4ccccc4)nn3)s2)c1OC` [Compound 397], the IC50 amounted to 8 nM.
`CC(C)(C)OC(=O)NCc1cccc(CC(=O)Nc2nnc(CCCCc3ccc(NC(=O)Cc4cccc(OC(F)(F)F)c4)nn3)s2)c1` [Compound 586]: the IC50 was found to be 13 nM.
As for `O=C(Cc1ccccc1OC(F)(F)F)Nc1ccc(CCCCc2nnc(NC(=O)Cc3ccccc3)s2)nn1` [Compound 614], the IC50 amounted to 8 nM.
For the molecule `O=C(Cc1ccc(OC(F)(F)F)cc1)Nc1ccc(CCCCc2nnc(NC(=O)Cc3ccccc3)s2)nn1` [Compound 615], the IC50 was found to be 9 nM.
On the same count and under the same terms, as for `CC(C(=O)Nc1nnc(CCCCc2ccc(NC(=O)Cc3cccc(OC(F)(F)F)c3)nn2)s1)c1ccccc1` (centres unmarked) [Compound 636], the figure is 8 nM.
For the molecule `COc1cccc(CC(=O)Nc2nnc(CCCCc3ccc(NC(=O)Cc4cccc(OC(F)(F)F)c4)nn3)s2)c1` [Compound 658], the IC50 was determined as 5 nM.
In the case of `O=C(Cc1cccc(OC(F)(F)F)c1)Nc1ccc(CCCCc2nnc(NC(=O)Cc3cc(F)ccc3F)s2)nn1` [Compound 659], the IC50 turned out to be 10 nM.
Still for that read-out and setting: as for `O=C(Cc1cccc(OC(F)(F)F)c1)Nc1ccc(CCCCc2nnc(NC(=O)Cc3cc(F)cc(F)c3)s2)nn1` [Compound 662], the figure is 7 nM; as for `O=C(Cc1cccc(OC(F)(F)F)c1)Nc1ccc(CCCCc2nnc(NC(=O)Cc3cccc(OC(F)F)c3)s2)nn1` [Compound 668], 9 nM.
On the same count and under the same terms, as for `O=C(Cc1cccc(OC(F)(F)F)c1)Nc1ccc(CCCCc2nnc(NC(=O)Cc3cccc(OCC(F)(F)F)c3)s2)nn1` [Compound 669], the figure is 21 nM; as for `O=C(Cc1cccc(OC(F)(F)F)c1)Nc1ccc(CCCCc2nnc(NC(=O)Cc3ccncc3)s2)nn1` [Compound 672], 10 nM; as for `O=C(Cc1cccc(OC(F)(F)F)c1)Nc1ccc(CCCCc2nnc(NC(=O)Cc3ccccc3F)s2)nn1` [Compound 673], 6 nM.
Still for that read-out and setting: as for `CSc1cccc(CC(=O)Nc2nnc(CCCCc3ccc(NC(=O)Cc4cccc(OC(F)(F)F)c4)nn3)s2)c1` [Compound 674], the figure is 8 nM.

In another assay the test system is P493-6 (myc "on") cells. In words: Cell Proliferation Assay. The following applies: P493-6, 72 h, read-out: Cell prolif P493 72 h IC50, P493-6 cells, 72 h. The format is cell-based. In outline: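 Read-out: either Cell Titer Glo or Guava Viacount flow analysis after 72 h compound treatment of myc-on P493-6 cells (10,000/well, RPMI with 10% FBS) at 37 °C. DMSO held at 0.5% final.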
Take `O=C(Cc1ccccc1)Nc1ccc(CCCCc2nnc(NC(=O)Cc3cccc(Cn4cccn4)c3)s2)nn1` [Compound 395]: the IC50 is 15 nM.
Same read-out and setting: with `COc1cccc(CC(=O)Nc2nnc(CCCCc3ccc(NC(=O)Cc4ccccc4)nn3)s2)c1OC` [Compound 397] the figure was 41 nM; with `CC(C)(C)OC(=O)NCc1cccc(CC(=O)Nc2ccc(CCCCc3nnc(NC(=O)Cc4cccc(CNC(=O)OC(C)(C)C)c4)s3)nn2)c1` [Compound 571], 10 nM; with `CCOC(=O)NCc1cccc(CC(=O)Nc2ccc(CCCCc3nnc(NC(=O)Cc4cccc(CNC(=O)OCC)c4)s3)nn2)c1` [Compound 572], 4 nM.
With `CCOC(=O)NCc1cc(C(C)C(=O)Nc2nnc(CCCCc3ccc(NC(=O)Cc4ccccc4)nn3)s2)ccc1F` (centres unmarked) [Compound 574], the IC50 came to 28 nM.
Still for that read-out and setting: as for `COc1ccc(CC(=O)Nc2nnc(CCCCc3ccc(NC(=O)Cc4ccccc4)nn3)s2)cc1O` [Compound 582], the figure is 46 nM; as for `Nc1ccc(CCCCc2nnc(NC(=O)Cc3cccc(OC(F)(F)F)c3)s2)nn1` [Compound 584], 1400 nM; as for `COC(=O)NC(C)c1cccc(CC(=O)Nc2ccc(CCCCc3nnc(NC(=O)Cc4ccccc4)s3)nn2)c1` (centres unmarked) [Compound 589], 25 nM.
On the same count and under the same terms, with `CC(C(=O)Nc1nnc(CCCCc2ccc(NC(=O)Cc3cccc(CNC(=O)OCCF)c3)nn2)s1)c1ccccc1` (centres unmarked) [Compound 591] the figure was 33 nM; with `CC(C)NC(=O)OC(C)c1cccc(CC(=O)Nc2nnc(CCCCc3ccc(NC(=O)Cc4ccccc4)nn3)s2)c1` (centres unmarked) [Compound 598], 4 nM.
The same measure, in the same setting: with `CC(C(=O)Nc1ccc(CCCCc2nnc(NC(=O)Cc3ccccc3)s2)nn1)c1ccc(F)c(CN(C)C(=O)OC(C)(C)C)c1` (centres unmarked) [Compound 599] the figure was 39 nM; with `CC(NC(=O)OC(C)(C)C)c1cccc(CC(=O)Nc2ccc(CCCCc3nnc(NC(=O)C(C)c4ccccc4)s3)nn2)c1` (centres unmarked) [Compound 603], 23 nM; with `COC(C(=O)Nc1nnc(CCCCc2ccc(NC(=O)Cc3cccc(CNC(=O)CC(O)C(F)(F)F)c3)nn2)s1)c1ccccc1` (centres unmarked) [Compound 604], 42 nM.
Turning to `COC(C(=O)Nc1nnc(CCCCc2ccc(NC(=O)Cc3cccc(CNC(=O)CC(C)(O)C(F)(F)F)c3)nn2)s1)c1ccccc1` (centres unmarked) [Compound 605], the IC50 is 18 nM.
With `CC(C(=O)Nc1nnc(CCCCc2ccc(NC(=O)Cc3cccc(CNC(=O)CC(O)C(F)(F)F)c3)nn2)s1)c1ccccc1` (centres unmarked) [Compound 606], the IC50 stood at 45 nM.
Same read-out and setting: with `CC(C(=O)Nc1nnc(CCCCc2ccc(NC(=O)Cc3cccc(CNC(=O)CC(C)(O)C(F)(F)F)c3)nn2)s1)c1ccccc1` (centres unmarked) [Compound 607] the figure was 47 nM; with `CCNC(=O)OC(C)c1cccc(CC(=O)Nc2ccc(CCCCc3nnc(NC(=O)Cc4ccccc4)s3)nn2)c1` (centres unmarked) [Compound 610], 11 nM; with `CC(O)c1cccc(CC(=O)Nc2ccc(CCCCc3nnc(NC(=O)Cc4ccccc4)s3)nn2)c1` (centres unmarked) [Compound 611], 40 nM.
Take `CC(C(=O)Nc1ccc(CCCCc2nnc(NC(=O)C(C)c3ccccc3)s2)nn1)c1ccccc1` (centres unmarked) [Compound 613]: the IC50 was found to be 450 nM.
Turning to `CS(=O)(=O)CCCOc1cccc(CC(=O)Nc2ccc(CCCCc3nnc(NC(=O)Cc4ccccc4)s3)nn2)c1` [Compound 623], the IC50 is 26 nM.
`O=C(O)Cc1cccc(OCC(=O)Nc2nnc(CCCCc3ccc(NC(=O)Cc4ccccc4)nn3)s2)c1` [Compound 627]: the IC50 is 850 nM.
With `COC(=O)Cc1cccc(OCC(=O)Nc2nnc(CCCCc3ccc(NC(=O)Cc4ccccc4)nn3)s2)c1` [Compound 628], the IC50 came out at 170 nM.
The same measure, in the same setting: as for `CS(=O)(=O)Cc1cccc(CC(=O)Nc2nnc(CCCCc3ccc(NC(=O)Cc4ccccc4)nn3)s2)c1` [Compound 634], the figure is 48 nM; as for `O=C(Cc1ccccc1)Nc1nnc(CCCCc2nnc(NC(=O)Cc3ccccc3)o2)o1` [Compound 637], greater than 50000 nM.
On the same count and under the same terms, as for `O=C(Cc1cccnc1)Nc1nnc(CCSCCc2nnc(NC(=O)Cc3cccnc3)s2)s1` [Compound 638], the figure is 5700 nM; as for `Cc1noc(Cc2cccc(CC(=O)Nc3ccc(CCCCc4nnc(NC(=O)Cc5ccccc5)s4)nn3)c2)n1` [Compound 648, 2-(3-((3-methyl-1,2,4-oxadiazol-5-yl)methyl)phenyl)-N-(6-(4-(5-(2-phenylacetamido)-1,3,4-thiadiazol-2-yl)butyl)pyridazin-3-yl)acetamide], 11 nM.
For `O=C(Cc1ccccc1)Nc1ccc(CCCCc2nnc(NC(=O)Cc3cccc4c3CNC4)s2)nn1` [Compound 650], the IC50 is 140 nM.
On the same count and under the same terms, as for `CC(=O)N1Cc2cccc(CC(=O)Nc3nnc(CCCCc4ccc(NC(=O)Cc5ccccc5)nn4)s3)c2C1` [Compound 651], the figure is 37 nM; as for `Cc1nnc(Cc2cccc(CC(=O)Nc3ccc(CCCCc4nnc(NC(=O)Cc5ccccc5)s4)nn3)c2)o1` [Compound 652, 2-(3-((5-methyl-1,3,4-oxadiazol-2-yl)methyl)phenyl)-N-(6-(4-(5-(2-phenylacetamido)-1,3,4-thiadiazol-2-yl)butyl)pyridazin-3-yl)acetamide], 39 nM.
On the same count and under the same terms, as for `CC(NC(=O)OC(C)(C)C)c1cc(CC(=O)Nc2nnc(CCCCc3ccc(NC(=O)Cc4ccccc4)nn3)s2)ccc1F` (centres unmarked) [Compound 653], the figure is 10 nM.
On the same count and under the same terms, as for `CC(NC(=O)OC(C)(C)C)c1cc(CC(=O)Nc2ccc(CCCCc3nnc(NC(=O)Cc4ccccc4)s3)nn2)ccc1F` (centres unmarked) [Compound 654], the figure is 7 nM.
In the case of `O=C(Cc1ccccc1)Nc1ccc(CCCCc2nnc(NC(=O)Cc3cccc(OC(F)F)c3)s2)nn1` [Compound 664], the IC50 is 60 nM.

Staying with this assay, now noted: P493-6, 72 h, read-out: Cell prolif P493 72 h IC50, P493 cells, 72 h.
With `O=C(Cc1ccccc1)Nc1ccc(CCCCc2ccc(NC(=O)Cc3ccccc3)nn2)nn1` [Compound 1038], the IC50 was 1500 nM.

Still in this assay, the particulars now being: read-out: Cell prolif P493 72 h IC50; 72 h.
Take `[2H]C([2H])(CCc1nnc(NC(=O)Cc2ccccn2)s1)C([2H])([2H])c1ccc(NC(=O)Cc2cccc(OC(F)(F)F)c2)nn1` [Compound 727]: the IC50 was 12 nM.

Still in this assay, the particulars now being: read-out: Cell prolif P493 72 h IC50; P493-6 cells, 72 h.
`Nc1nnc(CCCCc2ccc(NC(=O)Cc3cccc(OC(F)(F)F)c3)nn2)s1` [Compound 657, N-(6-(4-(5-amino-1,3,4-thiadiazol-2-yl)butyl)pyridazin-3-yl)-2-(3-(trifluoromethoxy)phenyl)acetamide]: the IC50 was 1500 nM.
